The text below walks through data of patent publication US4618677A, “Substituted phenylalkyl-(piperazinyl or homopiperazinyl)alkyl-thiols and -thiocarbamates useful for the treatment of immunological, inflammatory, and allergic disorders” (Boehringer Ingelheim Limited, priority 1984, dated 1986).

Each structure is given as a SMILES string. “And” between values parts separate entries of the source, which are not always exact repeats. Identical values can stand only once. Counter-ions that a name gives are not always drawn.

One assay deals with T1, histamine (H1) receptor (Cavia porcellus, UniProt P31389).
T1 construct: contraction of isolated guinea pig ileum; from tissue; host or cells: isolated guinea pig ileum
T1 sequence (P31389 whole entry): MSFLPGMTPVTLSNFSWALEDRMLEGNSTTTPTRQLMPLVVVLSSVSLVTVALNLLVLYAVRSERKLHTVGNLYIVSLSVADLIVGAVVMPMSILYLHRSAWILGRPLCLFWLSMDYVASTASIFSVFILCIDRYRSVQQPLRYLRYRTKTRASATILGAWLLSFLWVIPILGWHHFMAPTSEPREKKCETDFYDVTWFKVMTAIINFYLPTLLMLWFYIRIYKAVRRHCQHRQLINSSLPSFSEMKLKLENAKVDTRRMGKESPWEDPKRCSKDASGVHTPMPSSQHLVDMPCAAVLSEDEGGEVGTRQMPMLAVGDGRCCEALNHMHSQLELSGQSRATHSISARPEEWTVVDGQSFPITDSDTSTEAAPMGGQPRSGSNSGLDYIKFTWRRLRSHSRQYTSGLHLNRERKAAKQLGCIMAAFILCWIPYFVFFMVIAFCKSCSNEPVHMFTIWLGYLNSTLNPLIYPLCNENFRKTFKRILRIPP
In words: Antagonism of histamine-induced contraction of isolated guinea pig ileum. Conditions: histamine final concentration 0.2 μg/ml, 50% reduction of contractile response, read-out: Inhibition IC50 (μM) of histamine-induced contraction. The assay is classed as tissue-based. The text has this:
Certain compounds of formula I inhibit in vitro the histamine-induced contraction of isolated guinea pig ileum and are useful in warm-blooded animals for antagonizing the action of histamine at the histamine (H1) receptor. Accordingly, these compounds can be employed in a conventional manner as antihistamine agents for the treatment of allergic disorders, for example allergic rhinitis, vasomotor rhinitis, allergic conjunctivitis, hay fever, urticaria, and food allergies.
The antagonism of the effects of histamine on the contraction of isolated guinea pig ileum by the compounds of formula I can be determined by the procedure of G. Possanza, A. Bauen, and P. Stewart, Int. Arch. Allergy Appl. Immunol., 49, 289 (1975). The degree of inhibition is determined as the difference between the contraction caused by histamine (final concentration 0.2 μg/ml) alone and that seen in the presence of both histamine and the test compound. The inhibitory activity of the test compound is expressed as that concentration of the compound which causes a 50% reduction of the contractile response (IC50).
Regarding `CNC(=O)SCCCN1CCN(Cc2ccc(Cl)cc2)CC1` [Example 4, N-Methyl-S-{3-[4-(4-chlorobenzyl)piperazin-1-yl]propyl}thiocarbamate dihydrochloride], the IC50 – broadly, the point on the concentration scale where inhibition reaches its midpoint – was 0.19 µM.

Regarding `CC(C)NC(=O)SCCCN1CCN(Cc2ccc(Cl)cc2)CC1` [Example 5, N-Isopropyl-S-{3-[4-(4-chlorobenzyl)piperazin-1-yl]propyl}thiocarbamate dihydrochloride], the half-inhibitory concentration (IC50) was 0.21 µM and 0.3 µM. As for `O=C(Nc1ccc(F)cc1)SCCCN1CCN(Cc2ccc(Cl)cc2)CC1` [Example 9, N-(4-Fluorophenyl)-S-{3-[4-(4-chlorobenzyl)piperazin-1-yl]propyl}thiocarbamate dihydrochloride], the concentration for half-maximal inhibition (IC50) was 0.12 µM.

As to `COc1ccc(NC(=O)SCCCN2CCN(Cc3ccc(Cl)cc3)CC2)cc1` [Example 14, N-(4-Methoxyphenyl)-S-{3-[4-(4-chlorobenzyl)piperazin-1-yl]propyl}thiocarbamate dihydrochloride monohydrate], the half-inhibitory concentration (IC50) is 0.12 µM. Turning to `O=C(Nc1ccccc1)SCCCN1CCN(CCc2ccc(Cl)cc2)CC1` [Example 26, N-Phenyl-S-{3-[4-(4-chlorophenethyl)piperazin-1-yl]propyl}thiocarbamate dihydrochloride monohydrate], the IC50 is 0.06 µM. On the same count and under the same terms, for `COc1cc(NC(=O)SCCCN2CCN(CCc3ccc(Cl)cc3)CC2)cc(OC)c1OC` [Example 29, N-(3,4,5-Trimethoxyphenyl)-S-{3-[4-(4-chlorophenethyl)piperazin-1-yl]propyl}thiocarbamate dihydrochloride] the value was 0.18 µM.

A further assay relates to human leukocytes (basophils). In words: Inhibition of IgE-mediated histamine release from human leukocytes (basophils), Procedure A. The assay is classed as cell-based. The settings on record: Homo sapiens, Leukocyte, 1 h, read-out: In Vitro Inhibition of Histamine Release IC50 (μM) Procedure A.
Procedure: A. Procedure for Determining Inhibition of Histamine Release from Human Leukocytes (Basophils)
Separation of Leukocytes: A modification of the method of L. Lichtenstein and A. Osler, J. Exp. Med. 120, 507 (1964) is used. Heparinized human blood (80-100 ml) is mixed with 20 ml of saline (0.2%) containing 0.6 gm of dextrose and 1.2 gm of dextran in propylene centrifuge tubes. The mixture is kept at ambient temperature for 60-90 minutes to allow the separation of erythrocytes from the platelet-leukocyte-rich supernate. The supernate is removed and centrifuged for 8 minutes at 110 ×g in cold. The leukocyte pellet is washed twice with Tris buffer and finally suspended in 150-180 ml Tris-ACM buffer at 1-2 ×10^6 cells/ml.
Reaction Mixture: The reaction is carried out in 12×75 mm plastic tubes at a total volume of 1.23 ml. The reaction medium includes 0.05 ml rabbit anti-human IgE (the antigen), 0.2 ml of the test compound in water at concentrations ranging from 10-100 μM, and 1.0 ml of the leukocyte suspension. The reaction mixture is incubated in a 37° C. shaking water bath for 60 minutes. Upon completion of the reaction, the tubes are centrifuged and the supernatants collected. The protein is removed from the supernatants by precipitation with 0.2 ml of 8% perchloric acid.
Histamine Assay: Histamine release is measured by the automated fluorometric method of W. Siraganian and W. Hook in Chapter 102 of the Manual of Clinical Immunology, 2nd Edition, edited by R. Rose and H. Friedman, published by the American Society for Microbiology, Washington, D.C., 1980. Percent inhibition is calculated as follows: [formula]
The concentration which causes a 50 percent inhibition (IC50) of histamine release is interpolated from a plot of percent inhibition versus logarithm of drug concentration.
As to `SCCCN1CCN(Cc2ccccc2)CC1` [Example 1, 3-(4-Benzylpiperazin-1-yl)propanethiol dihydrochloride], the IC50 is 140 µM. On the same count and under the same terms, the same measure for `SCCCN1CCN(Cc2ccc(Cl)cc2)CC1` [Example 3, 3-[4-(4-Chlorobenzyl)piperazin-1-yl]propanethiol dihydrochloride]: 4 µM; for `Cc1ccc(CN2CCN(CCCS)CC2)cc1` [Example 17, 3-[4-(4-Methylbenzyl)piperazin-1-yl]propanethiol dihydrochloride]: 24 µM.

The assay is the same for the next values; noted with them: Leukocyte, 1 h; from human basophils; rabbit anti-human IgE as antigen; 60 min at 37° C.; > = no response detected at highest dose indicated; read-out: In Vitro Inhibition of Histamine Release IC50 (μM) Procedure A.
For the compound `O=C(Nc1ccccc1)SCCCN1CCN(Cc2ccccc2)CC1` [Example 2, N-Phenyl-S-[3-(4-benzylpiperazin-1-yl)propyl]thiocarbamate dihydrochloride monohydrate], the 50% inhibitory concentration (IC50) was determined as 310 µM.

For `CCCCc1ccc(NC(=O)SCCCN2CCN(Cc3ccc(Cl)cc3)CC2)cc1` [Example 8, N-(4-n-Butylphenyl)-S-{3-[4-(4-chlorobenzyl)piperazin-1-yl]propyl}thiocarbamate dihydrochloride], the IC50 was 760 µM. Still for that read-out and setting: the same measure for `O=C(Nc1ccc(F)cc1)SCCCN1CCN(Cc2ccc(Cl)cc2)CC1` [Example 9, N-(4-Fluorophenyl)-S-{3-[4-(4-chlorobenzyl)piperazin-1-yl]propyl}thiocarbamate dihydrochloride]: 11 µM. Take `O=C(Nc1ccc(Cl)cc1)SCCCN1CCN(Cc2ccc(Cl)cc2)CC1` [Example 10, N-(4-Chlorophenyl)-S-{3-[4-(4-chlorobenzyl)piperazin-1-yl]propyl}thiocarbamate dihydrochloride monohydrate]: the IC50 turned out to be 47 µM.

Take `O=C(Nc1ccc(Cl)c(Cl)c1)SCCCN1CCN(Cc2ccc(Cl)cc2)CC1` [Example 11, N-(3,4-Dichlorophenyl)-S-{3-[4-(4-chlorobenzyl)piperazin-1-yl]propyl}thiocarbamate dihydrochloride]: the IC50 is over 1000 µM. On to `COc1ccccc1NC(=O)SCCCN1CCN(Cc2ccc(Cl)cc2)CC1` [Example 12, N-(2-Methoxyphenyl)-S-{3-[4-(4-chlorobenzyl)piperazin-1-yl]propyl}thiocarbamate dihydrochloride sesquihydrate], for which the IC50 is over 300 µM. Same read-out and setting: for `COc1cccc(NC(=O)SCCCN2CCN(Cc3ccc(Cl)cc3)CC2)c1` [Example 13, N-(3-Methoxyphenyl)-S-{3-[4-(4-chlorobenzyl)piperazin-1-yl]propyl}thiocarbamate dihydrochloride] the value was 140 µM; for `Cc1ccc(CN2CCN(CCCSC(=O)Nc3ccccc3)CC2)cc1` [Example 18, N-Phenyl-S-{3-[4-(4-methylbenzyl)piperazin-1-yl]propyl}thiocarbamate dihydrochloride sesquihydrate], over 1000 µM; for `CC1CN(Cc2ccc(Cl)cc2)C(C)CN1CCCSC(=O)Nc1ccccc1` (stereo not drawn) [Example 20, N-Phenyl-S-{3-[4-(4-chlorobenzyl)-2,5-dimethylpiperazin-1-yl]propyl}thiocarbamate dihydrochloride], over 1000 µM.

Regarding `CC(c1ccccc1)N1CCN(CCCSC(=O)Nc2ccccc2)CC1` (stereo not drawn) [Example 22, N-Phenyl-S-{3-[4-(1-phenylethyl)piperazin-1-yl]propyl}thiocarbamate dihydrochloride dihydrate], the IC50 is 67 µM. `O=C(Nc1ccccc1)SCCCN1CCN(CCc2ccccc2)CC1` [Example 24, N-Phenyl-S-[3-(4-phenethylpiperazin-1-yl)propyl]thiocarbamate dihydrochloride monohydrate]: the IC50 was over 1000 µM. The same measure, in the same setting: for `O=C(Nc1ccccc1)SCCCN1CCN(CCc2ccc(Cl)cc2)CC1` [Example 26, N-Phenyl-S-{3-[4-(4-chlorophenethyl)piperazin-1-yl]propyl}thiocarbamate dihydrochloride monohydrate] the value was 25 µM.

As for `CCCCc1ccc(NC(=O)SCCCN2CCN(CCc3ccc(Cl)cc3)CC2)cc1` [Example 27, N-(4-n-Butylphenyl)-S-{3-[4-(4-chlorophenethyl)piperazin-1-yl]propyl}thiocarbamate dihydrochloride], the IC50 turned out to be 30 µM. Turning to `COc1cc(NC(=O)SCCCN2CCN(CCc3ccc(Cl)cc3)CC2)cc(OC)c1OC` [Example 29, N-(3,4,5-Trimethoxyphenyl)-S-{3-[4-(4-chlorophenethyl)piperazin-1-yl]propyl}thiocarbamate dihydrochloride], the IC50 was 9 µM.

On to `O=C(Nc1ccccc1)SCCCN1CCN(c2ccc(F)cc2)CC1` [Example 35, N-Phenyl-S-{3-[4-(4-fluorophenyl)piperazin-1-yl]propyl}thiocarbamate dihydrochloride], for which the IC50 was over 1000 µM. Turning to `O=C(Nc1ccccc1)SCCN1CCN(Cc2ccc(Cl)cc2)CC1` [Example 37, N-phenyl-S-{2-[4-(4-chlorobenzyl)piperazin-1-yl]ethyl}thiocarbamate dihydrochloride], the IC50 is 3 µM. The same measure, in the same setting: for `COc1ccc(NC(=O)SCCCN2CCN(CCCc3ccc(Cl)cc3)CC2)cc1` [Example 39, N-(4-Methoxyphenyl)-S-{3-[4-[3-(4-chlorophenyl)propyl]piperazin-1-yl]propyl]thiocarbamate dihydrochloride hemihydrate] the value was 13 µM; for `CCCCCCNC(=O)SCCCN1CCN(Cc2ccc(Cl)cc2)CC1` [Example 40, N-(n-Hexyl)-S-{3-[4-(4-chlorobenzyl)piperazin-1-yl]propyl}thiocarbamate dihydrochloride], 71 µM.

Consider `CCCCCCNC(=O)SCCCN1CCN(CC=Cc2ccccc2)CC1` [Example 44, N-(n-Hexyl)-S-[3-(4-cinnamylpiperazin-1-yl)propyl]thiocarbamate dihydrochloride], for which the IC50 is over 1000 µM. Same read-out and setting: for `SCCCN1CCCN(Cc2ccc(Cl)cc2)CC1` [Example 45, 3-[4-(4-Chlorobenzyl)homopiperazin-1-yl]propanethiol] the value was 3 µM; for `CCCCCCNC(=O)SCCCN1CCCN(Cc2ccc(Cl)cc2)CC1` [Example 46, N-(n-Hexyl)-S-{3-[4-(4-chlorobenzyl)homopiperazin-1-yl]propyl}thiocarbamatedihydrochloride], 12 µM.

Take `CC(C)(C)NC(=O)SCCCN1CCN(Cc2ccc(Cl)cc2)CC1` [Example 47, N-(t-Butyl)-S-{3-[4-(4-chlorobenzyl)piperazin-1-yl]propyl}thiocarbamate dihydrochloride sesquihydrate]: the IC50 is 58 µM.

The assay is the same for the next values; noted with them: from human basophils; rabbit anti-human IgE as antigen; 60 min at 37° C.; > = no response detected at highest dose indicated.
Take `CNC(=O)SCCCN1CCN(Cc2ccc(Cl)cc2)CC1` [Example 4, N-Methyl-S-{3-[4-(4-chlorobenzyl)piperazin-1-yl]propyl}thiocarbamate dihydrochloride]: the “In Vitro Inhibition of Histamine Release IC50 (μM) Procedure A” value is reported as “Int”.

`CC(C)NC(=O)SCCCN1CCN(Cc2ccc(Cl)cc2)CC1` [Example 5, N-Isopropyl-S-{3-[4-(4-chlorobenzyl)piperazin-1-yl]propyl}thiocarbamate dihydrochloride]: the “In Vitro Inhibition of Histamine Release IC50 (μM) Procedure A” value is reported as “Int”.
